Earlier results, collected in patent US11278572B2, “Reducing CXCR4 expression and/or function to enhance engraftment of hematopoietic stem cells” (THE UNITED STATES OF AMERICA, as represented by the …, priority 2014, dated 2022).

Legend:
[1] = tested on: CXCR4; conditions: WHIM patients, small studies
[2] = tested on: HPV; conditions: WHIM patients

Compound | effect on panleukopenia and WHIM syndrome [1] | effect on cutaneous and anogenital HPV disease [2]
c1cc(CN2CCCNCCNCCCNCC2)ccc1CN1CCCNCCNCCCNCC1 [Plerixafor, plerixafor] | successful at reversing the panleukopenia and treating WHIM syndrome | –
CC(C)Cn1cnc2c(N)nc3ccccc3c21 [imiquimod] | – | ineffective
